Values of other authors in patent US9266789B2, “Liquid dicyandiamide and/or alkyl thiophosphoric triamide compositions and their use in agricultural applications” (RHODIA OPERATIONS, priority 2012, dated 2016).

- solubility in water: about 41 g/l
Compound: N#CNC(=N)N [Dicyandiamide, 2-cyanoguanidine]
